{"source": "patent US8648105B2", "about": "“Diarylthiohydantoin compounds” (The Regents of the University of California, priority 2006, dated 2014)", "key": {"LIAR cell line": {"system": "LIAR cell line", "experiment": "Luciferase activity of the LIAR cell line (FIG. 25)", "assay_type": "cell-based", "details": "125 nmol to 1000 nmol", "source_text": "FIG. 25 is a graph of luciferase activity of the LIAR cell line dosed with various compounds administered at concentrations ranging from 125 nmol to 1000 nmol.\nThe inventors have determined that what might appear to be a small change in the structure of hydantoin compounds may result in a large change in that compound's performance in treating prostate cancer."}, "LogP": {"experiment": "LogP", "assay_type": "physicochemical"}, "AR [1]": {"molecular_target": "T1, AR (Homo sapiens, UniProt P10275)", "T1 sequence (P10275 1-920)": "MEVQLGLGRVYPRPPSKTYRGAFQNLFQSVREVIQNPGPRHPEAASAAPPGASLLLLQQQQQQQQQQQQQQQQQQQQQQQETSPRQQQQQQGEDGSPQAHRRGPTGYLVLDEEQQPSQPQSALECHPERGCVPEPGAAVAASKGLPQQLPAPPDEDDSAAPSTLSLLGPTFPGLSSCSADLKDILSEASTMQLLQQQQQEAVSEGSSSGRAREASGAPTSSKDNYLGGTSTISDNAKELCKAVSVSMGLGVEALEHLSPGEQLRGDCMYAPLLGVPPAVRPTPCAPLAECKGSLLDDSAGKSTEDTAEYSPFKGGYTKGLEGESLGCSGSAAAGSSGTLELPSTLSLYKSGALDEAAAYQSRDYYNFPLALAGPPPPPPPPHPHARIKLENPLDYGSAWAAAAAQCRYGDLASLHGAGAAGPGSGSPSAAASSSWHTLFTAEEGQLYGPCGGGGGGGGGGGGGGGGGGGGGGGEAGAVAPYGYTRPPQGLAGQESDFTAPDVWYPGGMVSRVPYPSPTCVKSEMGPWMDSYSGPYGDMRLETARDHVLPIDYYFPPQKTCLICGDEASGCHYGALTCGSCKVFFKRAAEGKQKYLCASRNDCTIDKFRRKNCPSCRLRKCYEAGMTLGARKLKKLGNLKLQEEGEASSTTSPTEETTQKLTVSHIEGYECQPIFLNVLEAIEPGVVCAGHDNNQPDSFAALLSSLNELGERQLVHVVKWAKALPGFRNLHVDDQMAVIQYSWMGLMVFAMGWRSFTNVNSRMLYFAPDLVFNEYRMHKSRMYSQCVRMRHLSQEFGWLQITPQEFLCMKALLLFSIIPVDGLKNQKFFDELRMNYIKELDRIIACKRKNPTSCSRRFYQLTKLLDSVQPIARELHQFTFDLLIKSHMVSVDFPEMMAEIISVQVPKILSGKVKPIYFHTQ", "assay_type": "cell-based", "parameters": "Fold induction, AR response reporter", "description": "It is well established that PSA levels are indicators of AR activities in prostate cancer. […] The LNCaP-AR cells are a line of lymph node carcinoma of prostate cells transduced with a plasmid that makes express androgen receptors. […] After four days incubation, secreted PSA levels were assayed using PSA ELISA kits (American Qualex, San Clemente, Calif.)"}, "[2]": {"system": "LNCaP hormone sensitive xenograft", "experiment": "LNCaP hormone sensitive xenograft model", "experimental": "Each set included 6 mice. The mice were treated with 10 mg/kg per day."}, "[3]": {"system": "LN-AR(HR) cell line tumors", "experiment": "LN-AR(HR) cell line tumors in SCID mice (FIG. 19)", "assay_type": "in vivo", "details": "10 mg per kg body weight per day", "source_text": "(A) The relative tumor volume as a function of time shown for each set of mice. (B) Images of each set of mice with photon emission associated with luciferase activity at day 31 shown as color contours. (C) Rate of photon emission associated with luciferase activity shown at several times for each set of mice."}, "[4]": {"molecular_target": "T2, androgen receptor (AR) and RNA polymerase II (Pol II) (Homo sapiens, UniProt P10275, T878A)", "T2 sequence (P10275 1-920 T878A)": "T1 sequence (P10275 1-920) with T878A", "details": "10 uM, 6 hours, LNCaP", "experimental": "LNCaP (ATCC) cells were plated in full serum. On the day of the experiment, the plate was washed once with 1×PBS and 5% CSS was added for 3 days. […] Each of these compounds was added for 6 hours. In a fourth set of experiments, a control, no additional compound was added (−). 6 hours timepoint was run at 28 cycles."}, "tumor": {"system": "tumor", "experiment": "Dose regimens of NC53 on tumor volume and luciferase photon emission (FIGS. 17, 18)", "assay_type": "in vivo", "details": "for tumor size: FIG. 17", "source_text": "FIG. 17 illustrates that under treatment with vehicle solution, tumors continued to increase in size."}, "AR [5]": {"molecular_target": "T1, AR", "assay_type": "cell-based", "parameters": "rows headed: IC50 (nM) Reporter; Fold induction, AR response reporter; agonistic activity on AR response reporter (w)", "details": "125 nM to 1000 nM, FIG. 3", "description": "The compounds were subjected to tests using an artificial AR response reporter system in a hormone refractory prostate cancer cell line. […] After two days of incubation, reporter activities were assayed."}, "androgen receptor": {"molecular_target": "T3, androgen receptor (Homo sapiens, UniProt P10275, T878A)", "T3 sequence (P10275 1-920 T878A)": "T1 sequence (P10275 1-920) with T878A", "details": "10 uM, 24 hours, with or without 100 pM R1881, LNCaP"}}, "note": "Numbering of substitutions follows the chain as printed. “Also recorded” adds a separate entry of the source.", "data": [{"molecule": "CNC(=O)c1ccc(N2C(=S)N(c3ccc(C#N)c(C(F)(F)F)c3)C(=O)C23CCC3)cc1F", "note": "[NC53, N-methyl-4-[7-(4-cyano-3-trifluoromethylphenyl)-8-oxo-6-thioxo-5,7-diaza-spiro[3.4]oct-5-yl]-2-fluorobenzamide]", "values": [{"measurement": "luciferase activity (comparison)", "setting": "LIAR cell line", "result": "less than the luciferase activity upon exposure to NC98"}, {"measurement": "logP", "setting": "LogP", "result": 3.2}, {"measurement": "PSA levels of LN-AR cells", "setting": "AR [1]; 100, 200, 500, and 1000 nM, FIG. 20", "result": "PSA levels of LN-AR cells decreased"}, {"measurement": "PSA levels", "setting": "AR [1]; LN-AR cells, FIG. 23", "result": "PSA levels decreased"}, {"measurement": "rate of tumor growth (tumor volume)", "setting": "[2]; 10 mg/kg per day, FIG. 6", "result": "slower than mice treated with vehicle solution"}, {"measurement": "PSA levels", "setting": "[2]; FIG. 16, relative to vehicle solution", "result": "PSA levels decreased"}, {"measurement": "tumor size and photon emission associated with luciferase activity", "setting": "[3]", "result": "decrease or stabilization of tumor size and a decrease in photon emission associated with luciferase activity"}, {"measurement": "AR and Pol II recruitment to PSA enhancer and PSA promoter", "setting": "[4]", "result": "prevented androgen receptor (AR) recruitment and RNA polymerase II (Pol II) recruitment to PSA enhancer and to PSA promoter"}, {"measurement": "tumor size", "setting": "tumor; 1 mg per kg body weight per day", "result": "the rate of tumor increase decreased, and the size of the tumor appeared to be stabilizing after about 17 days"}, {"measurement": "tumor size", "setting": "tumor; 10 mg per kg body weight per day", "result": "tumor size decreased with time"}, {"measurement": "photon emission associated with luciferase activity", "setting": "tumor; 10 mg per kg body weight per day, day 17 vs day 0, FIG. 18", "result": "photon emission associated with luciferase activity decreased"}, {"measurement": "luciferase activity in LNCaP-AR cells", "setting": "AR [5]", "result": "acted to reduce luciferase activity"}, {"measurement": "androgen receptor protein level", "setting": "androgen receptor", "result": "destabilized androgen receptor proteins; also recorded: androgen receptor protein is degraded"}]}]}
